According to the NIST ThermoML archive (doi:10.1021/je4004542):
“And” between values parts separate entries of the source, which are not always exact repeats. Equal values may be shown once.

Details: for mass density: Liquid, isochoric method; for surface tension liquid-gas: Ring tensiometer

CC(F)(F)CC(F)(F)F [1,1,1,3,3-pentafluorobutane]
Details	mass density [kg/m3]
237.49 K, 3052.4 kPa	1382.79
238.27 K, 4040.1 kPa	1382.71
239.08 K, 5074 kPa	1382.22
239.08 K, 5081.7 kPa	1382.63
243.12 K, 10185 kPa	1382.22
247.08 K, 15188 kPa	1381.81
247.43 K, 956.6 kPa	1361.21
248.25 K, 1931.8 kPa	1361.13
249.22 K, 3081.2 kPa	1361.03
250.2 K, 4243.7 kPa	1360.94
250.92 K, 19991 kPa	1381.43
250.93 K, 5088.8 kPa	1360.86
255 K, 25056 kPa	1381.02
255.26 K, 10152 kPa	1360.44
258.99 K, 29998 kPa	1380.62
259.5 K, 15102 kPa	1360.02
260.21 K, 1298.1 kPa	1336.72
261.05 K, 2152.9 kPa	1336.64
261.98 K, 3278.8 kPa	1336.55
262.73 K, 4030.2 kPa	1336.48
262.97 K, 34873 kPa	1380.23
263.72 K, 19989 kPa	1359.61
263.74 K, 5132.2 kPa	1336.38
267.12 K, 39916 kPa	1379.82
268.05 K, 24964 kPa	1359.2
268.32 K, 10033 kPa	1335.95
272.35 K, 29861 kPa	1358.79
273.08 K, 15145 kPa	1335.5
273.72 K, 1076.8 kPa	1309.97
274.73 K, 2060 kPa	1309.88
275.63 K, 2942.2 kPa	1309.8
276.61 K, 3921.9 kPa	1309.71
276.83 K, 34914 kPa	1358.36
277.65 K, 4903.9 kPa	1309.61
277.66 K, 19995 kPa	1335.08
281.43 K, 40068 kPa	1357.92
282.34 K, 24894 kPa	1334.64
282.69 K, 10162 kPa	1310.01
287.06 K, 29792 kPa	1334.21
287.75 K, 1242 kPa	1280.22
287.79 K, 15107 kPa	1309.56
288.9 K, 2019.2 kPa	1280.13
290.22 K, 3193 kPa	1280.01
291.35 K, 4070.9 kPa	1279.92
292.09 K, 35022 kPa	1333.75
292.96 K, 5455.1 kPa	1279.78
292.96 K, 20092 kPa	1309.09
296.9 K, 39956 kPa	1333.31
297.78 K, 24667 kPa	1308.67
298.16 K, 10021 kPa	1279.33
298.57 K, 1157.4 kPa	1258.72
299.69 K, 2006.3 kPa	1258.62
301.02 K, 3084.3 kPa	1258.51
302.24 K, 4081.3 kPa	1258.41
303.22 K, 29830 kPa	1308.18
303.47 K, 5080.2 kPa	1258.31
303.85 K, 15147 kPa	1278.84
308.65 K, 34947 kPa	1307.7
309.5 K, 20037 kPa	1278.36
309.51 K, 9974.6 kPa	1257.8
309.96 K, 1066.8 kPa	1234.65
311.31 K, 2069.7 kPa	1234.54
312.57 K, 3017.8 kPa	1234.43
313.89 K, 4006.1 kPa	1234.33
314.06 K, 40001 kPa	1307.23
315.23 K, 5013.4 kPa	1234.22
315.28 K, 25013 kPa	1277.86
315.8 K, 15053 kPa	1257.28
321.09 K, 29987 kPa	1277.37
322.04 K, 20055 kPa	1256.76
322.05 K, 10082 kPa	1233.67
322.3 K, 1278.8 kPa	1207.34
323.48 K, 1919.7 kPa	1207.25
325.25 K, 3125.1 kPa	1207.12
326.62 K, 4057.4 kPa	1207.01
326.99 K, 34967 kPa	1276.87
327.9 K, 4926.1 kPa	1206.91
328.32 K, 25047 kPa	1256.24
328.8 K, 15073 kPa	1233.12
333.06 K, 40085 kPa	1276.36
334.62 K, 30028 kPa	1255.72
335.52 K, 1037.9 kPa	1175.56
335.52 K, 10079 kPa	1206.32
335.52 K, 20025 kPa	1232.59
337.15 K, 2014.4 kPa	1175.44
338.81 K, 3050.5 kPa	1175.32
340.39 K, 4011 kPa	1175.2
341.51 K, 35426 kPa	1255.16
342.03 K, 5008.9 kPa	1175.08
342.36 K, 25012 kPa	1232.04
343.05 K, 15153 kPa	1205.73
347.07 K, 39768 kPa	1254.7
353.15 K, 11756 kPa	1174.25
353.15 K, 21912 kPa	1204.96
353.15 K, 32850 kPa	1231.18

Details	surface tension liquid-gas
261.8 K	19.87 mN/m
261.94 K	19.66 mN/m
268.05 K	19.19 mN/m
268.09 K	19.01 mN/m
273.05 K	18.56 mN/m and 18.41 mN/m
277.76 K	18.08 mN/m and 17.98 mN/m
282.88 K	17.57 mN/m
282.98 K	17.42 mN/m
288.32 K	17.05 mN/m
288.35 K	16.88 mN/m
293.51 K	16.3 mN/m
293.54 K	16.29 mN/m
297.79 K	15.81 mN/m
297.86 K	15.92 mN/m
302.48 K	15.41 mN/m
302.55 K	15.38 mN/m
308.11 K	14.66 mN/m
308.31 K	14.65 mN/m

COC(F)(F)C(F)(F)C(F)(F)F [heptafluoropropyl methyl ether]
Details	mass density [kg/m3]
209.16 K, 1147.7 kPa	1630.6
215.36 K, 9581.3 kPa	1629.81
219.53 K, 15297 kPa	1629.29
220.04 K, 1236.5 kPa	1604.5
223 K, 19918 kPa	1628.87
223.03 K, 4963.4 kPa	1604.13
227.03 K, 9963.9 kPa	1603.65
231.15 K, 15085 kPa	1603.16
231.6 K, 910.5 kPa	1576.15
232.59 K, 2030.9 kPa	1576.04
233.44 K, 3013 kPa	1575.94
234.26 K, 3948.9 kPa	1575.84
235.13 K, 20005 kPa	1602.69
235.25 K, 5067.3 kPa	1575.72
239.34 K, 25172 kPa	1602.2
239.68 K, 10109 kPa	1575.21
243.19 K, 29834 kPa	1601.75
244.03 K, 15038 kPa	1574.72
244.63 K, 1009.9 kPa	1544.86
245.59 K, 1998.3 kPa	1544.75
246.51 K, 2962.6 kPa	1544.65
247.39 K, 3900.7 kPa	1544.55
247.5 K, 35024 kPa	1601.26
248.47 K, 20022 kPa	1574.22
248.53 K, 5046.1 kPa	1544.43
251.72 K, 40059 kPa	1600.78
252.99 K, 25061 kPa	1573.71
253.35 K, 10014 kPa	1543.89
257.43 K, 29986 kPa	1573.22
258.16 K, 14929 kPa	1543.37
258.74 K, 1019.7 kPa	1509.93
259.75 K, 1914.3 kPa	1509.82
260.88 K, 2987.6 kPa	1509.7
261.92 K, 3946.9 kPa	1509.59
262 K, 34997 kPa	1572.72
263.02 K, 19886 kPa	1542.85
263.07 K, 5031.9 kPa	1509.47
266.61 K, 40003 kPa	1572.21
267.97 K, 24863 kPa	1542.32
268.54 K, 10046 kPa	1508.89
273.04 K, 29941 kPa	1541.78
273.95 K, 14959 kPa	1508.34
274.52 K, 994.4 kPa	1470.55
275.72 K, 1967.2 kPa	1470.43
276.99 K, 3007.5 kPa	1470.3
278.09 K, 34925 kPa	1541.25
278.24 K, 4016.2 kPa	1470.18
279.44 K, 4996 kPa	1470.06
279.44 K, 19959 kPa	1507.77
283.23 K, 39964 kPa	1540.71
284.96 K, 24913 kPa	1507.21
285.69 K, 10030 kPa	1469.44
285.95 K, 1083.6 kPa	1440.86
287.33 K, 2026 kPa	1440.73
288.68 K, 3021.9 kPa	1440.6
289.89 K, 3919.7 kPa	1440.48
290.57 K, 29908 kPa	1506.65
291 K, 4729.9 kPa	1440.38
291.9 K, 15010 kPa	1468.83
296.23 K, 34913 kPa	1506.08
298.15 K, 9994.4 kPa	1439.7
298.15 K, 19997 kPa	1468.22
298.45 K, 987.1 kPa	1407.52
300.45 K, 2316.3 kPa	1407.33
301.51 K, 3015.6 kPa	1407.24
302.03 K, 40008 kPa	1505.49
303.04 K, 4032 kPa	1407.09
304.36 K, 4907.1 kPa	1406.97
304.43 K, 24980 kPa	1467.62
305.45 K, 15319 kPa	1439.01
310.78 K, 29953 kPa	1467.01
312.11 K, 10022 kPa	1406.27
312.12 K, 1009.6 kPa	1369.41
312.57 K, 20469 kPa	1438.34
313.79 K, 1997.3 kPa	1369.27
315.49 K, 2985.1 kPa	1369.12
317.16 K, 3966.3 kPa	1368.97
317.19 K, 34932 kPa	1466.39
318.7 K, 4864.6 kPa	1368.84
319.58 K, 25523 kPa	1437.69
319.65 K, 14861 kPa	1405.59
323.78 K, 40025 kPa	1465.77
326.44 K, 30424 kPa	1437.05
327.49 K, 1098.2 kPa	1324.67
327.49 K, 10016 kPa	1368.08
327.51 K, 19990 kPa	1404.89
329.49 K, 2043 kPa	1324.5
331.48 K, 3053.3 kPa	1324.34
333.43 K, 4045.4 kPa	1324.18
333.47 K, 35408 kPa	1436.41
335.24 K, 25016 kPa	1404.19
335.37 K, 5030.2 kPa	1324.02
335.65 K, 14779 kPa	1367.37
340.74 K, 40506 kPa	1435.74
342.96 K, 29980 kPa	1403.51
344.67 K, 20018 kPa	1366.6
345.22 K, 10048 kPa	1323.21
353.15 K, 14072 kPa	1322.56
353.15 K, 24901 kPa	1365.87
353.15 K, 36576 kPa	1402.6

Details	surface tension liquid-gas [mN/m]
261.81 K	15.99
261.89 K	15.89
267.86 K	15.39
267.87 K	15.34
272.93 K	14.86
272.95 K	14.85
277.8 K	14.35
277.82 K	14.4
282.63 K	13.7
282.77 K	13.93
287.73 K	13.15
287.83 K	13.47
292.56 K	13.04
297.67 K	12.54
